Results taken from ChEMBL document CHEMBL1201862, “PubChem BioAssay data set” (2004).
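Five compound concentrations were applied to cells in 96-well plates for 48 hours; endpoints were derived by simple linear interpolation of the resulting dose-response curve. GI50 is the concentration that inhibits growth by half.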 Activity calls are given as the source filed them. Rule as the data show it: active = GI50 up to about 1.1 µM and inactive = higher.

What was measured:
Test in all cases: growth of human tumour cells (NCI), 48 h
NCI/ADR-RES = test system: NCI/ADR-RES
IGROV-1 = test system: IGROV-1
A549 = test system: A549
NCI-H226 = test system: NCI-H226
HOP-62 = test system: HOP-62
SNB-19 = test system: SNB-19
MCF7 = test system: MCF7
UACC-62 = test system: UACC-62
OVCAR-5 = test system: OVCAR-5
SK-OV-3 = test system: SK-OV-3
MDA-MB-435 = test system: MDA-MB-435
NCI-H460 = test system: NCI-H460
SK-MEL-2 = test system: SK-MEL-2
KM12 = test system: KM12
MDA-N = test system: MDA-N
CAKI-1 = test system: CAKI-1
BT-549 = test system: BT-549
DU-145 = test system: DU-145
HT-29 = test system: HT-29
CCRF-CEM = test system: CCRF-CEM

Measured: GI50

OCCNCCN1CCN(CCCN2c3ccccc3Sc3ccc(C(F)(F)F)cc32)CC1
inactive: NCI/ADR-RES 27.8 µM | IGROV-1 > 100 µM | A549 24 µM | NCI-H226 26.5 µM | HOP-62 21.4 µM | SNB-19 24.7 µM | MCF7 23.6 µM | UACC-62 22.3 µM | OVCAR-5 25.5 µM | SK-OV-3 33.6 µM | MDA-MB-435 18.8 µM | NCI-H460 23.2 µM | SK-MEL-2 21.5 µM | KM12 27.2 µM | MDA-N 19 µM | CAKI-1 76.2 µM | BT-549 85.9 µM | DU-145 50.6 µM | HT-29 14 µM | CCRF-CEM > 100 µM

Cc1ccc(S(=O)(=O)N/N=C2/C3C(CC2(C)C)C2(C)CCCC3(C)C2O)cc1 (centres undefined)
inactive: NCI/ADR-RES 21.2 µM | IGROV-1 25 µM | A549 20 µM | NCI-H226 17 µM | HOP-62 30.1 µM | SNB-19 29.4 µM | MCF7 17.5 µM | UACC-62 14.8 µM | OVCAR-5 > 10 µM | SK-OV-3 20.9 µM | MDA-MB-435 > 10 µM | NCI-H460 17.8 µM | SK-MEL-2 21 µM | KM12 18.3 µM | MDA-N 20.1 µM | CAKI-1 39.3 µM | BT-549 14.3 µM | DU-145 39.1 µM | HT-29 20.1 µM | CCRF-CEM 16.8 µM

COc1cc2c(cc1OCc1ccccc1)NC(=O)[C@@H]1CCCN1C2=O
inactive: NCI/ADR-RES > 100 µM | IGROV-1 58.9 µM | A549 > 100 µM | NCI-H226 > 100 µM | HOP-62 > 100 µM | SNB-19 > 100 µM | MCF7 > 100 µM | UACC-62 > 100 µM | OVCAR-5 > 100 µM | SK-OV-3 > 100 µM | MDA-MB-435 > 100 µM | NCI-H460 > 100 µM | SK-MEL-2 > 100 µM | KM12 > 100 µM | MDA-N > 100 µM | CAKI-1 > 100 µM | BT-549 > 100 µM | DU-145 > 100 µM | HT-29 > 100 µM | CCRF-CEM > 100 µM

CCOC(=O)CCC(NC(=O)Cc1ccc(Nc2nc3cc(F)c(F)cc3nc2C(=O)OCC)cc1)C(=O)OCC (centres undefined)
inactive: NCI/ADR-RES > 100 µM | A549 > 100 µM | NCI-H226 > 100 µM | HOP-62 > 100 µM | SNB-19 > 100 µM | MCF7 88.7 µM | UACC-62 58.7 µM | OVCAR-5 > 100 µM | SK-OV-3 > 100 µM | MDA-MB-435 > 100 µM | NCI-H460 > 100 µM | SK-MEL-2 23.7 µM | KM12 > 100 µM | MDA-N > 100 µM | CAKI-1 > 100 µM | BT-549 51.2 µM | DU-145 > 100 µM | HT-29 > 100 µM | CCRF-CEM 20.8 µM

COC(=O)C1=C(C)NC(C)=C([N+](=O)[O-])C1c1cccc(NO)c1 (centres undefined)
inactive: NCI/ADR-RES 4.16 µM | IGROV-1 5.01 µM | A549 3.86 µM | NCI-H226 7.28 µM | HOP-62 9.44 µM | SNB-19 6.65 µM | MCF7 3.94 µM | UACC-62 6.55 µM | OVCAR-5 14.7 µM | SK-OV-3 7.38 µM | MDA-MB-435 1.98 µM | NCI-H460 3.37 µM | SK-MEL-2 11.2 µM | KM12 2.54 µM | MDA-N 1.79 µM | CAKI-1 8.38 µM | BT-549 4.51 µM | DU-145 6.67 µM | HT-29 2.86 µM | CCRF-CEM 2.34 µM
